{"source": "paper PMC11734723", "about": "(Science Advances, 2025)", "origin": "cited, not measured here", "key": {"[1]": {"test_system": "RANKL-induced osteoclast differentiation", "details": "cited from earlier work"}, "[2]": {"test_system": "Orai channels", "details": "cited from earlier work"}, "[3]": {"test_system": "collagen-induced arthritis (CIA) mouse model", "details": "administered beginning at the time of arthritis induction; cited from earlier work"}}, "data": [{"smiles": "CCC(=O)Nc1ccc(Cl)c(Cl)c1", "note": "[3,4-dichloropropionanilide]", "values": [{"measurement": "inhibition of RANKL-induced osteoclastogenesis", "setting": "[1]; 100 nM", "result": "failed to inhibit"}, {"measurement": "formation of bone-degrading osteoclasts", "setting": "[1]; in vitro", "result": "reduced"}, {"measurement": "concentration needed to block RANKL-induced osteoclast differentiation", "setting": "[1]; in vitro, not blocked at concentrations below this", "result": "≥ 10", "unit": "µM"}, {"measurement": "effect on Orai channels", "setting": "[2]", "result": "inhibits"}, {"measurement": "effect on arthritis", "setting": "[3]", "result": "reduces arthritis"}]}]}
